Assays:
Format in all cases: biochemical
[1] = target: HprT (Bacillus subtilis, UniProt P37472); test: kinetic assay with purified HprT
[2] = target: GuaB (IMP dehydrogenase) (Bacillus subtilis, UniProt P21879); test: kinetic assay with purified GuaB
[3] = target: Gmk (guanylate kinase) (Bacillus subtilis, UniProt O34328); test: PK/LDH coupled enzymatic assay with purified Gmk
Gmk (guanylate kinase), sequence (O34328 whole entry): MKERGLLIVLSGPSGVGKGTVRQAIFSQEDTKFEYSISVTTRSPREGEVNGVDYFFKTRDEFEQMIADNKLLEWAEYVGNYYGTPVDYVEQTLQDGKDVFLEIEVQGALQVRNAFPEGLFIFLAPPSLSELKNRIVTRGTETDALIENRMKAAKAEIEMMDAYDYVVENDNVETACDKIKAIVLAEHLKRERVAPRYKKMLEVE

GuaB (IMP dehydrogenase), sequence (P21879 whole entry): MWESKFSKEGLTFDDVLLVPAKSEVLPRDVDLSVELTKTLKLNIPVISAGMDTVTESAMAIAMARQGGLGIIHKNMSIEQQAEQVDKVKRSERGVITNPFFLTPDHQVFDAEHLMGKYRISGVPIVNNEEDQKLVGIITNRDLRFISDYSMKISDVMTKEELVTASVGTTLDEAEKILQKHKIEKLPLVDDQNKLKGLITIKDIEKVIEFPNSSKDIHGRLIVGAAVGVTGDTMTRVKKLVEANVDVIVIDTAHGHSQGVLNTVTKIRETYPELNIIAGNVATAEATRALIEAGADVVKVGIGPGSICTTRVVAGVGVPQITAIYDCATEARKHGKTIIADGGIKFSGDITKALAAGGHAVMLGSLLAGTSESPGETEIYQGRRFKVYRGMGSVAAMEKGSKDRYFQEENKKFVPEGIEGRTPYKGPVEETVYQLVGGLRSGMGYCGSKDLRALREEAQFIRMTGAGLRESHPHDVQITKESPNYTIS
HprT, sequence (P37472 whole entry): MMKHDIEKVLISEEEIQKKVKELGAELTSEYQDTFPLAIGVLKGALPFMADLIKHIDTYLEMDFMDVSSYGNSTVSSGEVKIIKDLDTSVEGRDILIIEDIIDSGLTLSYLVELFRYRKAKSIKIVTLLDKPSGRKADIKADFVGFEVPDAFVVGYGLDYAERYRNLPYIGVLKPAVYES

Row | SMILES | IC50 [1] [µM] | IC50 [2] [µM] | IC50 [3] [µM]
1 | Nc1nc2c(ncn2[C@@H]2O[C@H](COP(=O)(O)OP(=O)(O)O)[C@@H](OP(=O)(O)OP(=O)(O)O)[C@H]2O)c(=O)[nH]1 [ppGpp] | ~11 | ~500 | ~20
2 | Nc1nc2c(ncn2[C@@H]2O[C@H](COP(=O)(O)OP(=O)(O)OP(=O)(O)O)[C@@H](OP(=O)(O)OP(=O)(O)O)[C@H]2O)c(=O)[nH]1 [pppGpp] | ~11 | ~300 | ~20

Reference: paper PMC3483369 (Molecular cell, 2012)
